d = 2'-deoxy (DNA); m = 2'-O-methyl; r = 2'-OH (RNA); f = 2'-fluoro
Assays:
GST-π mRNA = experiment: Knockdown of GST-π mRNA in A549 xenograft tumors in vivo; design: species or system mouse
[1] = tested on: A549 orthotopic lung cancer tumors; experiment: Orthotopic A549 lung cancer mouse model; settings: 2 mg/kg
Description: The anti-tumor efficacy of the siRNA formulation against human lung cancer A549 was evaluated by comparing the final primary tumor weights measured at necropsy for the treatment group and the vehicle control group.
For this study, male NCr nu/nu mice, 5-6 weeks old, were used. The experimental animals were maintained in a HEPA filtered environment during the experimental period. The siRNA formulations were stored at 4° C. before use, and warmed to room temperature 10 minutes prior to injection in mouse.
For this A549 human lung cancer orthotopic model, on the day of surgical orthotopic implantation (SOI), the stock tumors were harvested from the subcutaneous site of animals bearing A549 tumor xenograft and placed in RPMI1640 medium. Necrotic tissues were removed and viable tissues were cut into 1.5-2 mm^3 pieces. The animals were anesthetized with isoflurane inhalation and the surgical area was sterilized with iodine and alcohol. A transverse incision approximately 1.5 cm long was made in the left chest wall of the mouse using a pair of surgical scissors. An intercostal incision was made between the third and the fourth rib and the left lung was exposed. One A549 tumor fragment was transplanted to the surface of the lung with an 8-0 surgical suture (nylon). The chest wall was closed with a 6-0 surgical suture (silk). The lung was re-inflated by intrathoracic puncture using a 3 cc syringe with a 25 G×1½ needle to draw out the remaining air in the chest cavity. The chest wall was closed with a 6-0 surgical silk suture.
Three days after tumor implantation, the model tumor-bearing mice were randomly divided into groups of ten mice per group. For the group of interest, treatment of the ten mice was initiated three days after tumor implantation.
For the group of interest, the formulation was (Ionizable lipid: cholesterol:DOPE:DOPC:DPPE-PEG-2K:DSPE-PEG-2K), a liposomal composition. The liposomes encapsulated the GST-π siRNA.
For the study endpoint, the experimental mice were sacrificed forty-two days after treatment initiation. […]

PUMA = PUMA biomarker for apoptosis of cancer cells in vitro (qPCR); format: cell-based; settings: from 2-4 days after transfection; siRNA 10 nM
Description: The protocol for the PUMA biomarker was as follows. One day before transfection, cells were plated in a 96-well plate at 2×10^3 cells per well with 100 μl of DMEM (HyClone Cat. # SH30243.01) containing 10% FBS and cultured in a 37° C. incubator containing a humidified atmosphere of 5% CO2 in air. Next day, before transfection the medium was replaced with 90 μl of Opti-MEM I Reduced Serum Medium (Life Technologies Cat. #31985-070) containing 2% FBS. Then, 0.2 μl of Lipofectamine RNAiMAX (Life Technologies Cat. #13778-100) were mixed with 4.8 μl of Opti-MEM I for 5 minutes at room temperature. 1 μl of the siRNAs (stock conc. 1 μM) was mixed with 4 μl of Opti-MEM I and combined with the RNAiMAX solution and then mixed gently. The mixture was incubated for 10 minutes at room temperature to allow the RNA-RNAiMAX complexes to form. 10 μl of RNA-RNAiMAX complexes were added per well, to final concentration of the siRNA 10 nM. The cells were incubated for 2 hours and medium changed to fresh Opti-MEM I Reduced Serum Medium containing 2% FBS. […] PUMA (BBC3, Cat# Hs00248075, Life Technologies) mRNA levels were measured by qPCR with TAQMAN.
The protocol for the PUMA biomarker was as follows. […] PUMA (BBC3, Cat#Hs00248075, Life Technologies) mRNA levels were measured by qPCR with TAQMAN.

[2] = tested on: A549 cancer xenograft tumors; experiment: A549 cancer xenograft model, tumor inhibition efficacy; format: in vivo, mouse; settings: 0.75 mg/kg IV, two injections (day 1 and 15)
Description: For the cancer xenograft model, an A549 cell line was obtained from ATCC. The cells were maintained in culture medium supplemented with 10% Fetal Bovine Serum and 100 U/ml penicillin and 100 μg/ml streptomycin. Cells were split 48 hrs before inoculation so that cells were in log phase growth when harvested. Cells were lightly trypsinized with trypsin-EDTA and harvested from tissue culture. The number of viable cells was counted and determined in a hemocytometer in the presence of trypan blue (only viable cells are counted). The cells were resuspended to a concentration of 5×10^7/ml in media without serum. […]
For tumor volume measurements and randomization, tumor size was measured to the nearest 0.1 mm. Tumor volumes were calculated using the formula: […]. […] Tumor volumes were monitored three times for week 1, twice for the rest of weeks, including the day of study termination. […]
For body weight, mice were weighed to the nearest 0.1 g. Body weights were monitored and recorded daily within 7 days post dosing for first dose. Body weights were monitored and recorded twice for weeks, for the rest of weeks, including the day of study termination.
For tumors collection, on 28 days post first dosing, tumor volume was measured, and tumor was dissected for weight measurement, and stored for PD biomarker study. Tumor weight was recorded. […]

Substance: SEQ ID NOs:61 and 126: GST-π siRNA; sense GAAGCCUUUUGAGACCCUAtt; antisense UAGGGUCUCAAAAGGCUUCag (sense GAAGCCUUUUGAGACCCUATT; antisense UAGGGUCUCAAAAGGCUUCAG; chemistry not given here)
- reduction of GST-π mRNA (GST-π mRNA; 4 mg/kg, single injection, 24 hours after injection): about 40%
- GST-π mRNA expression (GST-π mRNA; 4 days after injection in a lipid formulation): significant reduction
- final tumor average weights reduced as compared to control ([1]; after 43 days, liposomal formulation, athymic nude mice): 2.8 fold
- mean body weight of the mice ([1]; entire experimental period): maintained within the normal range
- other symptoms of toxicity ([1]; entire experimental period): not observed

Substance: SEQ ID NOs:156 and 182: GST-π siRNA, Table 2; sense GAAGCCUUUUGAGACCCUAUU; antisense fUAGgGuCuCAAAAGGCUUCUU (antisense UAGGGUCUCAAAAGGCUUCUU; sense: sugars from the 5' end mmmrrrrmrmrrrrrrrmmmm, backbone not given here; antisense: sugars from the 5' end frrdrdrdmrmmrrrrmmrmm, backbone and T or U not given here)
- expression of PUMA (PUMA): greatly increased
- tumor volume reduced as compared to control ([2]; after 36 days, liposomal formulation): 2 fold
- tumor weight reduced ([2]; endpoint day): more than 2 fold

Source: patent USRE48887E1, “RNA interference compositions and methods for malignant tumors” (Nitto Denko Corporation, priority 2014, dated 2022)
